Assay [1] relates to mouse intestinal organoids. The assay can be described thus: cystic organoid percentage, organoids in conditioned media (SCM/QCM) with or without inhibitors or antibodies. The format is cell-based. The note with it: SCM-exposed organoids. As for the experimental part:
Twenty-four hours before collecting conditioned media (CM), MEFs were washed with serum-free DMEM twice, and serum-free DMEM was added. After 24 h in serum-free DMEM, this CM was collected, filtered using Steriflip filters (Millipore, #SE1M179M6) to remove cell debris, and concentrated using centrifugal filter units (Amicon ultra-15 centricon; Millipore, # UFC900324). […] CM was filtered and dialyzed for 24–48 h to remove the inhibitors before concentration.
(§1) The jejunum part of the small intestine was removed, flushed with PBS, opened longitudinally, then cut into 0.5 cm pieces. The collected tissues were washed with ice cold PBS multiple times by vortexing and incubated in PBS containing 2.5 mM EDTA for 5 min at 37 °C. After gentle shaking and aspiration, tissues were incubated in PBS containing 5 mM EDTA for 7 min at 37 °C. Tissues were then washed with PBS to remove EDTA and vigorously shaken to release crypts. The released crypts were passed through 70 μm strainers, washed with PBS, and pelleted by centrifugation at 200 × g.
(§2) 3-4 biological replicates of organoids from different mice were used per condition. Organoids were cultured in the indicated media, inhibitors, antibodies and/or recombinant proteins for 5 d and fixed in 4% formaldehyde in PBS. Organoids were imaged with a 4× Plan Fluor objective (NA: 0.13, Nikon) on a Nikon Ti-E inverted microscope equipped with a Neo scMOS camera (Andor, Oxford Instruments), a linear encoded automated stage (Applied Scientific Instrumentation), all run by NIS Elements software (Nikon). Organoids were imaged in brightfield and images covering the whole well were stitched and focused into one image projection with an extended depth of focus module (EDF; Nikon). One hundred to 200 organoids per replicate per condition were counted and used for quantification. The number of budding organoids in each condition was normalized by the number of budding organoids in untreated or DMSO treated controls to calculate cystic organoid percentage:1 Cysticorganoidpercentage=100×1−Numberofbuddingorganoidsfromexperiment/Numberofbuddingorganoidsfromcontrol

Assay [2] has as its system mouse intestinal organoids. The experiment in a line: inhibition of Wnt5a-induced cystic organoids. The format is cell-based. The note with it: Wnt5a-treated organoids. As for the experimental part:
as §1, with “g. Resuspended crypts were mixed with Matrigel (Corning, #356231; Lot#8218007) and pipetted into culture plates. After mixture of crypts and Matrigel solidified, IntestiCult Organoid Growth Medium (Stem Cell Technologies, #06005; Lots #1000021927, #1000034230, #1000037372) was added. Seven days after seeding, organoids were resuspended in dissociation buffer (Gentle Cell Dissociation Reagent; Stem Cell Technologies, #07174), dissociated by pipetting, and seeded for experiments.” for “g.”
as §2

Assay [3] deals with YAP in mouse intestinal organoids. The assay can be described thus: whole mount immunostaining for YAP nuclear localization. It counts as cell-based. As for the experimental part: For whole mount staining, freshly passaged crypts were mixed with Matrigel (Corning, #356231) and mounted to µ-Slide 8 well chamber slides (ibidi, #80826). Media were changed every 2–3 d. 5 days later, organoids in the chamber slides were then fixed in 4% formaldehyde in PBS for 30 min, permeabilized with 0.5% Triton X-100 for 1 h, and incubated in blocking solution (3% normal donkey serum (Sigma-Aldrich, #566460) and 5% BSA (Sigma-Aldrich, #A7979) in 0.1% Triton X-100 + PBS) for 1 h. Primary and secondary antibodies were diluted in blocking solution and added to fixed organoids. Organoids were incubated with primary antibodies overnight at 4 °C and with secondary antibodies for 2 h. ProLong Diamond Antifade Mountant (Invitrogen, # P36970) was added. Images were acquired with a Yokogawa CSU-W1/Zeiss 3i Marianas spinning disk confocal microscopy system. For each organoid, Z-planes up to 100 μm with 1 or 1.5 μm z-steps were acquired to quantify the number of cell types.

Assay [4] has as its system soluble Ptk7 (sPtk7) shed by MEFs. The experiment in a line: Western blot for sPtk7 in conditioned media. The format is cell-based, mouse. How it is done:
Twenty-four hours before collecting conditioned media (CM), MEFs were washed with serum-free DMEM twice, and serum-free DMEM was added. After 24 h in serum-free DMEM, this CM was collected, filtered using Steriflip filters (Millipore, #SE1M179M6) to remove cell debris, and concentrated using centrifugal filter units (Amicon ultra-15 centricon; Millipore, # UFC900324). To collect CM without sPtk7, TAPI-1 (Millipore, #59053) or GM6001 (Sigma-Aldrich, #364206) containing serum-free DMEM instead of serum-free DMEM was added to the cells. To inhibit Wnt secretion, IWP-L6 (Sigma-Aldrich, #504819) containing serum-free DMEM instead of serum-free DMEM was added to the cells. CM was filtered and dialyzed for 24–48 h to remove the inhibitors before concentration. Concentrated CM from equal numbers of MEFs was mixed with IntestiCult Organoid Growth Medium (Stem Cell Technologies, #06005) and added to the organoid cultures.
Conditioned media corresponding to the same number of cells were loaded for SDS–PAGE. Total cell and tissue lysates of mouse fibroblasts and intestine were prepared using RIPA lysis buffer (Thermo Fisher Scientific, #89900) with protease/phosphatase inhibitor (Thermo Fisher Scientific, #1861281). Protein concentration was measured with BCA protein assay kit (Thermo Fisher Scientific, #23227), and equal amount of proteins were loaded for SDS–PAGE. […]
(In general: A western blot detects proteins with antibodies after separation by electrophoresis.)

A further assay concerns MEFs. The experiment in a line: SA-β-Gal staining. It counts as cell-based, mouse. The note with it: X-ray irradiation or doxorubicin (250 nM, 3 days). How it is done:
Staining was performed with the Senescence Detection Kit (Abcam, #ab65351) following the manufacturer’s protocol. Briefly, MEFs were fixed for 15 min with 1× fixation solution, washed with PBS, then stained overnight at 37 °C in 1× staining solution. Brightfield images were captured on the Zeiss Axio Imager M2 microscope.

The subject of assay [5] is mouse intestinal organoids. The assay can be described thus: cystic organoid percentage, organoids treated with recombinant Wnt ligands (Wnt3a, Wnt5a, Wnt11). The format is cell-based. The note with it: for percentage of cystic organoids: Fig. 4e, individual mice, n = 3. How it is done: as §1, with “g. Resuspended crypts were mixed with Matrigel (Corning, #356231; Lot#8218007) and pipetted into culture plates. After mixture of crypts and Matrigel solidified, IntestiCult Organoid Growth Medium (Stem Cell Technologies, #06005; Lots #1000021927, #1000034230, #1000037372) was added. Seven days after seeding, organoids were resuspended in dissociation buffer (Gentle Cell Dissociation Reagent; Stem Cell Technologies, #07174), dissociated by pipetting, and seeded for experiments.” for “g.”
as §2

Assay [6] concerns cytosolic Ca2+ in mouse intestinal organoids. The assay can be described thus: live Ca2+ imaging of mouse intestinal organoids (GCaMP6f/tdTomato: baselined area under curve, peak number, height, width). The format is cell-based. Conditions: live organoids expressing GCaMP6f. As for the experimental part: Z stacks were acquired every 10 s.
Z-stack images were converted to mean intensity projections and, where required; background was subtracted using a rolling ball algorithm. Segmentation was conducted on a max-projection over-time of the GCaMP6f channel using Cellpose’s pre-trained “Cytoplasm” classifier. Mean intensity traces were measured in each ROI over the time course in both the GCaMP6f and TdTomato channels using scikit-image[138]. Ca^2+ oscillation patterns were calculated in an unsupervised, automated manner using MATLAB. Mean intensity traces were smoothed using a Savitzky-Golay filter and peaks were identified using the “findpeaks” algorithm from the MATLAB Signal Processing Toolbox. Graphs for GCaMP6f/tdTomato fluorescence ratio, peak numbers, peak height, peak width and baselined area under the curve were generated using Python matplotlib and seaborn packages. Statistical analysis was performed using Python SciPy and scikit-post-hoc packages.

Assay [7] concerns β-Catenin-dependent Wnt signaling (HEK293-TB cells). The assay can be described thus: TOPbrite dual-luciferase Wnt reporter assay. The format is cell-based. Conditions: SF.3e. As for the experimental part: Generation of HEK293 cells stably expressing a TOPbrite firefly luciferase Wnt reporter and pRL-SV40 Renilla luciferase (HEK293-TB) was previously described. HEK293-TB cells were maintained in DMEM/F12 (50:50), supplemented with 10% FBS, 2 mM Glutamax (Gibco, #35050-061) and 40 μg/ml hygromycin (Cellgro, #30-240-CR). For the luciferase reporter assay, HEK293-TB cells were seeded in 96-well plates (Falcon, #353377). The next day, cells were treated with indicated Wnt ligands (50 ng/ml) or CM diluted in culture media. After 24 h, the firefly and Renilla luciferase activity was measured using Dual-Glo Luciferase Assay system (Promega, #E2940) on a Perkin Elmer EnVision multilabel reader. The ratios of firefly luminescence to Renilla luminescence were calculated and normalized to control samples that were not treated.
In general terms: In a reporter assay the amount or activity of a reporter protein is the signal.

Where “and” joins values, the source holds several entries; their conditions need not be identical. Equal values may be shown once.

With `CN1CCN(CCCN2c3ccccc3Sc3ccc(C(F)(F)F)cc32)CC1` [TFP, Trifluoperazine], the “effect on cystic organoid phenotype” value in assay [1] was “reduced the percentage of cystic organoids”. Moreover, the “effect on Wnt5a-induced cystic organoid phenotype” value in assay [2] is “reduced the percentage of cystic organoids”. Also, the “effect on nuclear localization of YAP” value in assay [3] is “reversed SCM- or Wnt5a-induced nuclear translocation of YAP”.
Turning to `COc1cccc2c1C(=O)c1c(O)c3c(c(O)c1C2=O)C[C@@](O)(C(=O)CO)C[C@@H]3O[C@H]1C[C@H](N)[C@H](O)[C@H](C)O1` [doxorubicin], the “levels of sPtk7 in conditioned media” value in assay [4] is “contained higher levels of sPtk7”. Moreover, the “senescence (SA-β-gal)” value in the assay on MEFs is “confirmed senescence”.
Take Wnt3a [reference compound]: the “percentage of cystic organoids” value in assay [5] (Wnt3a 25 ng/ml) is 7.495% and 3.142% and 6.766%; in assay [5] (Wnt3a 50 ng/ml) it was 18.7879% and 6.422% and 6.8556%; in assay [5] (Wnt3a 100 ng/ml), 13.092% and 2.902% and 16.5461%; in assay [5] (Wnt3a 250 ng/ml), 21.7379% and 11.3578% and 13.1232%; in assay [5] (Wnt3a 500 ng/ml) it was 37.371% and 19.4444% and 31.0445%. In addition, the “induction of cystic organoids” value in assay [5] (recombinant Wnt ligand added to crypt cultures) is reported as “dose-dependently increased organoids with cystic morphology”. Moreover, the “effect on cytosolic Ca2+ levels and oscillations” value in assay [6] is recorded as “decreased cytosolic Ca^2+ levels”. Also, the “TOPbrite dual-luciferase Wnt reporter activity” value in assay [7] (replicate 1) was 83.0786; in assay [7] (replicate 2) it was 67.4901; in assay [7] (replicate 3) it was 77.6835; in assay [7] (replicate 4), 73.6039.

Source of the values: publication PMC9834240, “Senescent cells perturb intestinal stem cell differentiation through Ptk7 induced noncanonical Wnt and YAP signaling” (Nature Communications, 2023).
